Assay results from patent publication US10946020B2, “Compositions and methods for treating cancer” (University of Virginia Patent Foundation, priority 2016, dated 2021).

Key:
DGKα = DGKα (Homo sapiens, UniProt P23743); test: DGKα kinase assay with liposomes and purified enzyme; type: biochemical; conditions: purified enzyme, liposomes; highest drug concentration 100 μM
Experimental: To obtain purified protein, 293T cells were cultured in DMEM containing 5% fetal calf serum and 1% penicillin/streptomycin (GIBCO™, Thermo Fisher Scientific, Waltham, Mass., United States of America). The cells were transiently transfected with 40 μg of pcDNA3-FLAG-DGKα plasmid/plate. The transfection was done using lipofectamine 2000 at a 2:1 ratio of DNA:lipofectamine. The cells were harvested and homogenized in lysis buffer (10 mM Na2HPO4, pH 7.4, 50 mM β-glucopyranose, 50 mM NaF, 1 mM EDTA, 1 mM EGTA, 0.02% Triton X-100, phenylmethylsulfonyl fluoride, leupeptine, and pepstatin). The cell homogenate was centrifuged at 16,000×g at 4° C. for 10 minutes. The supernatant was immunoprecipitated with anti-FLAG (M2) beads for 2 hours at 4° C. The beads were packed onto a screening column and washed five times with the lysis buffer. The protein was eluted with five successive 200 μl fractions of 0.5 mg/ml of FLAG peptide (LifeTein, LLC, Somerset, N.J., United States of America). The elution fractions containing DGKα were combined and dialyzed three times against 10 mM Na2HPO4 (pH 7.4), and 50 mM β-glucopyranose, 50 mM NaF, 1 mM EDTA, and 1 mM EGTA. The purified DGKs were quantified with UV absorbance and by comparing DGKα bands with bovine serum albumin standards on Coomassie-blue stained SDS-PAGE gels. […]

[1] = tested on: U251 human glioblastoma cells; test: orthotopic intracranial U251 xenograft survival; type: in vivo, athymic nu/nu mice; conditions: 50 mg/kg daily oral gavage, started one week after injection
Experimental: (§1) Intracranial surgical implantation of tumor was as previously described. See Kefas et al., 2013. In brief, 400,000 U251 human glioblastoma or 50,000 GL261 mouse glioma suspended in 4 μL of serum-free DMEM were injected into anesthetized mice through a burr hole placed […] to the bregma. Treatment for 8-9 mice per group began 6-7 days post-tumor implantation via oral gavage and continued daily. Magnetic resonance images were taken at 3 weeks post-tumor implantation to assess tumor volume, and volumes were calculated as previously described. See Kefas et al., 2013. Mice were euthanized at 20% weight loss or with the first sign of neurological impairment.
Athymic nu/nu mice were injected with U251 cells and one week later began daily oral gavage treatment.

VMM39 melanoma line = test: cell growth suppression, live cell count; type: cell-based; conditions: Homo sapiens, VMM39, 96 h; single dose, live cells four days post-treatment
U251 GBM line = test: cell growth suppression, live cell count; type: cell-based; conditions: Homo sapiens, U-251, 96 h; single dose, live cells four days post-treatment
Experimental: (§2) Single dye controls were used for compensation. […] Experiments were repeated several times per cell type.
(§3) Several cancer cell lines were tested in vitro to determine whether ritanserin was cytotoxic. A single dose of ritanserin was sufficient to suppress cell growth in GBM lines U251 (human), GL261 (mouse), and JWL578 (human GBM stem cell line) with IC50s 5-10 μM, very similar to previous results with R59022. See also, Dominguez et al., 2013. […] Data from alamarBlue assays, a measure of cellular viability, provided similar IC50s. Immortalized astrocytes were viable above 20 μM ritanserin.

GL261 GBM line = test: cell growth suppression, live cell count; type: cell-based; conditions: Mus musculus, GL261, 96 h; single dose, live cells four days post-treatment
Experimental: as §2, §3

[2] = tested on: JWL578 GBM stem cell line; test: cell growth suppression, live cell count; type: cell-based; conditions: Homo sapiens, 96 h; single dose, live cells four days post-treatment
Experimental: as §2, §3

[3] = tested on: geranylgeranyltransferase type 1 (GGTase I); test: unprenylated Rap1A immunoblot; type: cell-based; conditions: various GBM cells
Description: (§4) Further, based on increases in unprenylated ras-related protein Rap1A in various GBM cells, it appears that ritanserin inhibits geranylgeranyltransferase type 1 (GGTase I).

mTOR promoter = mTOR promoter reporter dual luciferase assay; type: cell-based, human; conditions: U251 and VMM39, 20 μM ritanserin vs vehicle
Experimental: (§5) mTOR promoter reporter-RLuc or HIF-1α binding site-FLuc plasmids were transfected into serum-starved U251 and VMM39 one day after cell plating at 60-80% confluency using Fugene HD at 3:1 (Promega Corporation, Fitchburg, Wis., United States of America). Cells were fed several hours post-transfection and ritanserin was added. Cells were lysed after 36-48 hours and assayed with the Dual-Luciferase Reporter assay system kit (Promega Corporation, Fitchburg, Wis., United States of America) and Promega GloMax® 20/20 luminometer (Promega Corporation, Fitchburg, Wis., United States of America). Results were double-normalized using control empty vectors pRL and pGL3.
(§6) To compare to previous findings that DGKα inhibition affects mTOR transcription, U251 and VMM39 were transfected with an mTOR promoter reporter and treated with ritanserin or vehicle. […] Ritanserin therefore appears to mimic R59022's effects on known DGKα targets in the mTOR and HIF-1α signaling pathways. See Dominguez et al., 2013.

RhoA = RhoA ELISA; type: cell-based; conditions: G2 and G88 mesenchymal GBM cells
Description: as §4

[4] = tested on: mesenchymal GBM cell lines; test: ritanserin treatment of 11 GBM cell lines of various sub-types; type: cell-based; conditions: in vitro
Description: (§7) Glioblastomas can be categorized into four different subtypes based on gene expression patterns and clinical characterization. […] In particular, median survival increased from 17.5 days to 28.5 days in mice with xenografts from a G88 mesenchymal GBM stem cell line.

[5] = tested on: lung (A549) and pancreatic (MPanc-96) carcinoma cells; test: ritanserin sensitivity after epithelial-mesenchymal transition; type: cell-based; conditions: EMT induced with TNF-alpha and TGF-beta; 15 μM (lung), 10 μM (pancreatic)
Description: Thus it appears that the mesenchymal cancer phenotype can be preferentially targeted with ritanserin in GBM and in other cancers, as well.

[6] = previous studies; cited from earlier work
NF-κB = NF-κB luciferase assay; type: cell-based; conditions: two mesenchymal GBM cell lines (G2, G88)
Experimental: (§8) Since radiation is a frontline treatment for GBM, the combination of ritanserin treatment and radiotherapy was tested. The radiosensitization of two different mesenchymal GBM stem cells, including a radioresistant cell type (i.e., G88 cells) is shown in FIGS. 9A and 9B. […] Chou-Talalay analysis indicated synergy. Ritanserin treatment also appears to affect downstream regulators of the radiation response. NF-κB has been indicated as a factor in radioresistance. Thus, the effect of ritanserin on NF-κB expression was also measured in two mesenchymal GBM cell lines using a NF-κB luciferase assay.

[7] = tested on: U251 GBM and VMM39 melanoma cell lines; test: Annexin V cell death assay (flow cytometry); type: cell-based, human; conditions: compared to controls
Experimental: as §2
To determine the mechanism of ritanserin cytotoxicity, ritanserin-treated cells were assayed for Annexin V-positivity as well as cellular permeability (with DNA dye 7-AAD).

GL261 mouse glioma cells = test: syngeneic intracranial GL261 glioma model; type: in vivo, C57BL/6 mice
Experimental: as §1
(§9) DGKα inhibition decreases T-cell anergy. Thus, it is believed that a syngeneic, immunocompetent tumor model could show a stronger survival benefit. GL261 mouse glioma cells were implanted intracranially and treatment begun six days later. Ritanserin improved median survival to 64 days versus 36 days with vehicle. […] Ritanserin treatment also yielded decreases in tumor size and prolonged survival in other cell lines and xenograft models.

[8] = tested on: mesenchymal GBM stem cells (G2, G88); test: radiosensitization, soft agar colony assay; type: cell-based; conditions: 1.25 μM ritanserin, 4 Gy radiation, colonies after two weeks
Experimental: as §8

p53 S15 = test: immunoblot of p53 S15 phosphorylation; type: cell-based, human; conditions: extracts from U251 and VMM39 cell lines
Experimental: (§10) Immunoblotting was performed as previously described. […] Antibodies were obtained from Cell Signaling Technology (Danvers, Mass., United States of America). Cells were lysed 24-72 hours post-treatment in 1× lysis buffer. The Human Phospho-Kinase Array kit (R&D Systems, Minneapolis, Minn., United States of America) was used to identify ritanserin targets. Immunoblots were performed with multiple replicates.
Decreased p53 S15 can cause chemosensitization to other cytotoxic reagents. p53 is hyper-phosphorylated after serine 15 phosphorylation in DNA-damaged cells as an […], pro-transcriptional pathway, and antagonism of S15 phosphorylation is associated with increasing sensitivity to DNA-damaging agents. See Loughery et al., 2014; and Wittlinger et al., 2007. Immunoblots of extracts from both U251 and VMM39 cell lines confirmed that ritanserin decreases S15 phosphorylation.

[9] = tested on: VMM39 human melanoma cells; test: subcutaneous melanoma tumor model; type: in vivo, athymic nu/nu mice; conditions: 50 mg/kg, compared to vehicle and 10 mg/kg ritanserin
Experimental: For subcutaneous tumors, 250,000 VMM39 human melanoma cells were injected subcutaneously into the left flank. After two weeks, tumors were measured daily using electronic calipers and tumor volume calculated. Mice were euthanized when tumors were greater than […] in any dimension or greater than 1000 mm^3 in volume.
as §9

[10] = previous studies (Leysen et al., 1985); cited from earlier work
[11] = target: serotonin (5-hydroxytryptamine, 5-HT) subtype 5-HT2; conditions: read-out: Ki as 5-HT2 antagonist; cited from earlier work
HSP60 = test: dot-blot phospho-proteomics assay in U251; type: cell-based, human; conditions: U251, 15 μM ritanserin, lysed at 24 hours
Experimental: as §10
(§11) A dot-blot proteomics assay was used to investigate ritanserin downstream targets. U251 treated with 15 μM ritanserin were lysed at 24 hours. Several target proteins were substantially changed with ritanserin treatment. HSP60 decreased to 10% of baseline. Heat shock proteins are molecular targets in glioblastoma, and their loss prevents the unfolded protein response. See Ampie et al., 2015. HIF-1a and possibly mTOR up-regulate HSP60. P70 S6K phosphorylation at T389/T421 was decreased, as expected given DGKα activation of mTOR.

[12] = tested on: P70 S6K phosphorylation at T389/T421; test: dot-blot phospho-proteomics assay in U251; type: cell-based, human; conditions: U251, 15 μM ritanserin, lysed at 24 hours
Experimental: as §10, §11

[13] = tested on: G2 mesenchymal GBM stem cell line; test: intracranial G2 mesenchymal GBM stem cell xenograft survival; type: in vivo, mice; conditions: 50 mg/kg daily oral gavage vs vehicle
[14] = tested on: G88 mesenchymal GBM stem cell line; test: intracranial G88 mesenchymal GBM stem cell xenograft survival; type: in vivo, mice; conditions: 50 mg/kg daily, started six days after implantation; vehicle 17.5 days
Experimental: as §1, §7

HIF-1α = HIF-1α binding site reporter dual luciferase assay; type: cell-based, human; conditions: U251, 20 μM ritanserin vs vehicle
Experimental: as §5, §6

B16 melanoma line = test: cell growth suppression, live cell count; type: cell-based; conditions: Mus musculus, B16, 96 h; single dose, live cells four days post-treatment
Immortalized astrocytes = test: viability of immortalized astrocytes; type: cell-based
Description: as §2

Sequence of DGKα (P23743 whole entry, species assumed): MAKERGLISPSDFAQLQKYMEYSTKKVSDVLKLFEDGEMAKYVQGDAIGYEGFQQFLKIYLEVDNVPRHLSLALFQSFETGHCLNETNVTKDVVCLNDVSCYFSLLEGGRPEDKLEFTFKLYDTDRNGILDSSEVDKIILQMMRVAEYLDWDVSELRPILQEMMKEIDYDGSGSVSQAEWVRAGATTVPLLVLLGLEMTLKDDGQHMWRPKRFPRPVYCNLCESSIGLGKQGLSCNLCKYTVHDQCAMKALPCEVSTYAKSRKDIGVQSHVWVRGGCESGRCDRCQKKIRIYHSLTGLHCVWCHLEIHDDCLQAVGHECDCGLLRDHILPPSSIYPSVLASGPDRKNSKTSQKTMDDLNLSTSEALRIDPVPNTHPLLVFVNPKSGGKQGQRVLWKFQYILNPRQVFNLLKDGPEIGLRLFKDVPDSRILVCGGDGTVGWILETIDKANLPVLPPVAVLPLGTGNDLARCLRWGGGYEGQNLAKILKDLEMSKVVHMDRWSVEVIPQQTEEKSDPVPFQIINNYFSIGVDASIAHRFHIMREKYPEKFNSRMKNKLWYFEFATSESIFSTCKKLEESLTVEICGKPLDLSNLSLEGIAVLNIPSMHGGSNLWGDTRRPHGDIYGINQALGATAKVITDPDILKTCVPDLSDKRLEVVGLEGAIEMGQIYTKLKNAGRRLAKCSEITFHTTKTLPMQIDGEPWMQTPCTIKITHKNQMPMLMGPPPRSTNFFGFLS

Compound `Cc1nc2sccn2c(=O)c1CCN1CCC(=C(c2ccccc2)c2ccc(F)cc2)CC1` [R59022] has an IC50 (DGKα) of 20 µM.

With `Cc1nc2sccn2c(=O)c1CCN1CCC(=C(c2ccc(F)cc2)c2ccc(F)cc2)CC1` [ritanserin, 6-[2-[4-[bis(4-fluorophenyl)methylidene]piperidin-1-yl]ethyl]-7-methyl-[1,3]thiazolo[3,2-a]py-rimidin-5-one] the survival [1] was “increased survival significantly”, the IC50 (VMM39 melanoma line) was 10 to 15 µM and the IC50 (U251 GBM line) was 5 to 10 µM. The IC50 (GL261 GBM line) was 5 to 10 µM, the IC50 [2] was 5 to 10 µM and the “GGTase I inhibition inferred from unprenylated Rap1A” value [3] was “inhibits”. The mTOR promoter activity (mTOR promoter) was “strongly decreased”, the RhoA expression (RhoA) was “inhibit RhoA expression” and the “sensitivity of mesenchymal GBM cell lines relative to other subtypes” value [4] was “three to four times more sensitive”. For the same compound, the IC50 (DGKα) was 9 µM, the “sensitivity to ritanserin after EMT” value [5] was “more sensitive” and the oral bioavailability [6] was “orally bioavailable”. For the same compound, the NF-κB expression (NF-κB) was “decreased NF-κB expression”, the “Annexin V positivity” value [7] was “increased Annexin V” and the median survival (GL261 mouse glioma cells; 50 mg/kg daily oral, started six days after implantation, vehicle 36 days) was 64 days. For the same compound, the “tumor size by magnetic resonance imaging” value (GL261 mouse glioma cells; three weeks after implantation, vs vehicle) was “decreased tumor size”, the “radiosensitization, colony number” value [8] was “clear radiosensitization effect” and the “p53 S15 phosphorylation” value (p53 S15) was “decreases”. For the same compound, the tumor formation [9] was “delayed tumor formation”, the brain exposure [10] was “reach the brain in meaningful concentrations” and the Ki [11] was 0.00039 µM. The HSP60 level (HSP60) was 10 % of baseline, the “P70 S6K phosphorylation at T389/T421” value [12] was “decreased” and the median survival [13] was “increased”. The median survival [14] was 28.5 days, the HIF-1α reporter activity (HIF-1α) was “loss of HIF-1α reporter activity” and the IC50 (B16 melanoma line) was 10 to 15 µM. The “ritanserin concentration at which astrocytes were viable” value (Immortalized astrocytes) was “above 20 μM”.
